Experimental data from paper PMC2215335 (The Journal of General Physiology, 1977).
“Also recorded” adds a separate entry of the source.

What was measured:
[1] = system: membrane chloride conductance (GCl), rat diaphragm; assay: Inhibition of membrane chloride conductance; format: cell-based; details: for Relative potency: potency of 1 for a compound having a Ki of 1 x 10^-2 M; for Reduction of GCl: 10-s M (so in the source)
[2] = system: residual conductance in chloride-free solution (largely attributable to K+), rat diaphragm; assay: Residual conductance in chloride-free solution; format: cell-based
[3] = system: membrane anion permeability, rat diaphragm; assay: Anion permeability sequence, bi-ionic potential shift measurements; format: cell-based
[4] = system: red blood cell (RBC) surface charge; assay: Electrophoretic mobility of erythrocytes; set-up: species or system human; details: concentrations 0.1 to 100 times the Ki
[5] = system: membrane resistance, rat diaphragm; assay: Membrane resistance of diaphragm in vitro during perfusion and wash; format: cell-based
[6] = system: Cl- current, rat diaphragm fibers; assay: Current-voltage relationships of diaphragm fibers; format: cell-based; details: 2 x 10^-5 M 9-AC, 20 ms after onset of hyperpolarizing pulses, all voltage levels
[7] = system: membrane anion conductances (GCl, GBr, GNO3, GI), rat diaphragm; assay: Anion conductance sequence in rat diaphragm; format: cell-based
[8] = system: rat diaphragm fibers; assay: Resting membrane potential of diaphragm fibers; format: cell-based; details: fibers exposed to 2 x 10-s M 9-AC (so in the source); SD

Molecule | Relative potency [1] | Effects on residual conductances (GK) [2] | other results
3,~-Dichloro-2-amino BA | 76 | + | –
O=C(O)c1c(Cl)c(Cl)cc(Cl)c1Cl [2,3,5,6-Tetrachloro BA] | 47 | + | –
Cc1cc(C)c(C)c(C(=O)O)c1C [2,3,5,6-Tetramethyl BA] | 16.7 | 0 | –
Cc1c(C)c(C(=O)O)c(C)c(C)c1C(=O)O [2,3,5,6-Tetramethyl-4-COOH-BA] | < 0.1 | 0 | Effect on GCl (in words) ([1]; rat diaphragm): without detectable effect on Gel
O=C(O)c1c(Cl)ccc(Cl)c1Cl [2,3,6-Trichloro BA] | 10.5 | 0 | –
Cc1cc(C)c(C(=O)O)cc1C [2,4,5-Trimethyl benzoic acid] | 152 | + | Permeability sequence inversion ([3]; increasing analog concentration): same sequence inversions were observed; Red blood cell (RBC) electrophoretic mobility [4]: No change
Cc1cc(C)c(C(=O)O)c(C)c1 [2,4,6-Trimethyl BA] | 2.5 | 0 | –
O=C(O)COc1ccc(Cl)cc1Cl [2,4-Dichloro phenoxyacetic acid] | 5.0 | – | –
Cc1ccc(C(=O)O)c(C)c1 [2,4-Dimethyl BA] | 6.2 | + | –
O=C(O)c1cc(Cl)ccc1Cl [2,5-Dichloro BA] | 33.3 | 0 | –
Cc1ccc(C)c(C(=O)O)c1 [2,5-Dimethyl BA] | 32 | 0 | –
Cc1ccc(C)c(S(=O)(=O)O)c1 [2,5-Dimethyl benzene SOsH] | < 0.3 | 0 | –
O=C(O)c1c(Cl)cccc1Cl [2,6-Dichloro BA] | 5.0 | 0 | –
O=C(O)c1ccc(Cl)c(Cl)c1 [3,4-Dichloro BA] | 38 | 0 | –
Cc1ccc(C(=O)O)cc1C [3,4-Dimethyl BA] | 5.0 | 0 | –
O=C(O)c1cc(Cl)cc(Cl)c1 [3,5-Dichloro BA] | 40 | 0 | –
Cc1cc(C)cc(C(=O)O)c1 [3,5-Dimethyl BA] | 6.7 | 0 | –
Cc1cc(C(=O)O)cc(C)c1N [3,5-Dimethyl-4-amino BA] | < 0.3 | – | –
Cc1cc(C(=O)O)cc(C)c1O [3,5-Dimethyl-4-hydroxy BA] | < 0.1 | 0 | –
Cc1cc(C(=O)O)cc(C)c1[N+](=O)[O-] [3,5-Dimethyl-4-nitro BA] | 3.6 | 0 | –
O=C(O)c1c(Cl)ccc(Cl)c1[N+](=O)[O-] [3,6-Dichloro-2-nitro BA] | 6.0 | 0 | –
O=C(O)c1cc(Cl)c(Cl)cc1C(=O)O [4,5-Dichioro-2-COOH BA] | 0.63 | 0 | –
O=C(O)c1c2ccccc2cc2ccccc12 [9-AC, anthracene-9-COOH] | 909 | 0 | Time for increase in membrane resistance to reach new steady value ([5]; 10^-5 M 9-AC in Ringer's): ≤ 10 min; Membrane resistance in chloride-free Ringer's ([5]; methylsulfate-substituted chloride-free Ringer's, same concentration (10^-5 M)): unaffected; Time for membrane resistance to return to near control levels ([5]; reperfusion with normal Ringer's after 10^-5 M 9-AC): 30 to 60 min; Early I-V relationships relative to control values [6]: about 30 % of control; Reduction of GCl ([1]; depolarizing pulses): 54%; Reduction of GCl ([1]; hyperpolarizing pulses): 58%; Percent reduction in observed GCl at varied external Ca2+ ([1]; 10^-5 M 9-AC, external [Ca2+] 2 mM, 10 mM and 20 mM): the same; Relative permeability I- vs Cl- ([3]; 5 x 10^-5 M 9-AC, 30 min): more permeable to I- than to el-; Red blood cell (RBC) electrophoretic mobility [4]: No change; Anion conductance sequence ([7]; 8 x 10^-6 M 9-AC (table prints 8 x 10-e M)): CI>I>NO3>Br; Change of GI ([7]; 9-AC at 5 x 10^-5 M): appeared increased relative to control values; Reduction of GCl ([7]; 9-AC at 5 x 10^-5 M): > 90%; Change of GBr ([7]; 9-AC at 8 x 10^-6 M): changed little; Change of GI ([7]; 9-AC at 8 x 10^-6 M): appeared to increase; Reduction of GCl ([7]; 9-AC at 8 x 10^-6 M): approximately 50%; Effect on GI at concentrations reducing GCl by >90% ([7]; 9-AC concentrations reducing GCl by more than 90 percent): slight augmentation of G(I); also recorded: slight augmentation of GI; Average resting membrane potential (RMP) [8]: 68.3 ± 3.8 mV
O=C(O)c1ccccc1 [Benzoic acid (BA), Benzoic acid] | – | 0 | –
O=C(O)c1c(Cl)c(Cl)c(Cl)c(Cl)c1Cl [Pentachloro BA] | 125 | + | –
